Data published in patent publication US20210387966A1, “2-AMINO-N-HETEROARYL-NICOTINAMIDES AS NAV1.8 INHIBITORS” (Merck Sharp & Dohme Corp., priority 2018, published 2021).

Target: T1, human Nav1.8 channels (Homo sapiens, UniProt Q9Y5Y9)
T1 construct: expressed in transfected cells
Experiment: Nav1.8 Qube automated patch-clamp assay
Assay type: cell-based
Details: human Nav1.8 stably expressed in HEK 293 cells; whole-cell voltage clamp, room temperature; resting or inactivated state not specified; read-out: IC50 values (nM) for Examples in the Nav1.8 Qube Assay
Summary of the method: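 Whole-cell patch clamp at room temperature on HEK293 cells stably expressing human Nav1.8. A 1 Hz train of ten 20 ms pulses to 10 mV from −90 mV holding, with −67 mV repolarization, was applied; first- and tenth-pulse peak currents gave resting and inactivated-state IC50s by Hill fitting.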

T1 sequence (Q9Y5Y9 whole entry): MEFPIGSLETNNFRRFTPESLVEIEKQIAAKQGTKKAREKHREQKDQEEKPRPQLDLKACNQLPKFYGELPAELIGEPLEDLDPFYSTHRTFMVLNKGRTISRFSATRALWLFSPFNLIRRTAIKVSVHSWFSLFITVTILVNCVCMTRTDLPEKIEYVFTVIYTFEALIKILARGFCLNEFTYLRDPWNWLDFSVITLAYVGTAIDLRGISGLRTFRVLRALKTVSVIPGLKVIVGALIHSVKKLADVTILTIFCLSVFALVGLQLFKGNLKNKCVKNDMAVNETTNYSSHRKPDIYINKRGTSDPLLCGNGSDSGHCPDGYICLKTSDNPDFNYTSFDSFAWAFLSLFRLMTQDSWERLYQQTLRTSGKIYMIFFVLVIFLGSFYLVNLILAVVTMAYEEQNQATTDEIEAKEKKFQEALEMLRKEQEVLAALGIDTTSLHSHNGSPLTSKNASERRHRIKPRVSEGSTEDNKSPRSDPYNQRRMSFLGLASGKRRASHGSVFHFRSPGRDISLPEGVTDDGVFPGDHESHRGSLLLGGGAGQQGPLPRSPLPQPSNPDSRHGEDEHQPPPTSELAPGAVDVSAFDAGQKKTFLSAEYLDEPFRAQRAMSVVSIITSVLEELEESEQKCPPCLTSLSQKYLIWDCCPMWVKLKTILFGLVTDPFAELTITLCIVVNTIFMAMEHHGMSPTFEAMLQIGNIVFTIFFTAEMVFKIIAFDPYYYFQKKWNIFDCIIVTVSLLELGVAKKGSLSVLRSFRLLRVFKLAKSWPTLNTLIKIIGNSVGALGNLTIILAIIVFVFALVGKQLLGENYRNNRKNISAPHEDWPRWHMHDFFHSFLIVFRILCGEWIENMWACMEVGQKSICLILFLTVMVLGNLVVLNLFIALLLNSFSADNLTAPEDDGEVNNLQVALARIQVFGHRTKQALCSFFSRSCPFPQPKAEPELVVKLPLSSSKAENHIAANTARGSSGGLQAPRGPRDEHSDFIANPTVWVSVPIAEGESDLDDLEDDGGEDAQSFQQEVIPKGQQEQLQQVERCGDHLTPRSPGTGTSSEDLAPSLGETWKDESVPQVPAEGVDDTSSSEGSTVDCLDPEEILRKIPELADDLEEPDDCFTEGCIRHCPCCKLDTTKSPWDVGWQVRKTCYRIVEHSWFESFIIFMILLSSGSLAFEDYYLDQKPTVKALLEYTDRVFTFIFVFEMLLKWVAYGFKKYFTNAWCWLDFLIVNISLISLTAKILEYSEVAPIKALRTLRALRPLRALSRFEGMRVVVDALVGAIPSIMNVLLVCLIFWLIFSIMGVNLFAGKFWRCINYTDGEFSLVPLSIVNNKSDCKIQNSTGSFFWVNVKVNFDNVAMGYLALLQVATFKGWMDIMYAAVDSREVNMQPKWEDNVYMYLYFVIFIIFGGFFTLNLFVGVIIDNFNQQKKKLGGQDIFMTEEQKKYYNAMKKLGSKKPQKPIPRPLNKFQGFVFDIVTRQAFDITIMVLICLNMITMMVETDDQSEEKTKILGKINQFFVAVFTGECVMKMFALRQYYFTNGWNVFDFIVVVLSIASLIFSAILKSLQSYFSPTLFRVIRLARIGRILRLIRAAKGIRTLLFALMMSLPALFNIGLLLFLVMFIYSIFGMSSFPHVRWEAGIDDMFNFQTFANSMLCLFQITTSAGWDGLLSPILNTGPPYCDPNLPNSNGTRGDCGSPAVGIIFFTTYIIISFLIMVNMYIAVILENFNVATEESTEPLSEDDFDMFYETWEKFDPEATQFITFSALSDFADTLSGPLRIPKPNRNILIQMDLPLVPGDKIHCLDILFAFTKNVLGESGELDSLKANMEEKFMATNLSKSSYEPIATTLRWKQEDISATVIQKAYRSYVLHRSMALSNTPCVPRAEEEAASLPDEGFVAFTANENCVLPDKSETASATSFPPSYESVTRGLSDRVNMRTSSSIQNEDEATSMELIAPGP

| Structure (SMILES) | IC50 |
| --- | --- |
| Cc1nc(N2CCC(F)(F)CC2)c(C(=O)Nc2cncc(S(N)(=O)=O)c2)c(C)c1Cl [Example 189, 5-chloro-2-(4,4-difluoro-1-piperidyl)-4,6-dimethyl-N-(5-sulfamoyl-3-pyridyl)pyridine-3-carboxamide] | 13 nM |
| Cc1nc(N2CCC3(CC2)CC3)c(C(=O)Nc2cncc(S(N)(=O)=O)c2)c(C)c1Cl [Example 190, 2-(6-azaspiro[2.5]octan-6-yl)-5-chloro-4,6-dimethyl-N-(5-sulfamoyl-3-pyridyl)pyridine-3-carboxamide] | 31 nM |
| Cc1nc(N2CCCCC2)c(C(=O)Nc2cncc(S(N)(=O)=O)c2)c(C)c1Cl [Example 191, 5-chloro-4,6-dimethyl-2-(1-piperidyl)-N-(5-sulfamoyl-3-pyridyl)pyridine-3-carboxamide] | 124 nM |
| COc1ccc(C(=O)Nc2cncc(S(N)(=O)=O)c2)c(N2CCCC(F)(F)CC2)n1 [Example 192, 2-(4,4-difluoroazepan-1-yl)-6-methoxy-N-(5-sulfamoyl-3-pyridyl)pyridine-3-carboxamide] | 163 nM |
| N#Cc1cncc(NC(=O)c2cc(C(F)(F)F)cnc2N2CCCCCC2)c1 [Example 193, 2-(azepan-1-yl)-N-(5-cyano-3-pyridyl)-5-(trifluoromethyl)-pyridine-3-carboxamide] | 654 nM |
| COc1cncc(NC(=O)c2cc(C(F)(F)F)cnc2N2CCCCCC2)c1 [Example 194, 2-(azepan-1-yl)-N-(5-methoxy-3-pyridyl)-5-(trifluoromethyl)-pyridine-3-carboxamide] | 1550 nM |
| Cc1cncc(NC(=O)c2cc(C(F)(F)F)cnc2N2CCCCCC2)c1 [Example 195, 2-(azepan-1-yl)-N-(5-methyl-3-pyridyl)-5-(tri-fluoromethyl)-pyridine-3-carboxamide] | 2770 nM |
| O=C(Nc1cncc(CO)c1)c1cc(C(F)(F)F)cnc1N1CCCCCC1 [Example 196, 2-(azepan-1-yl)-N-[5-(hydroxymethyl)-3-pyridyl]-5-(trifluoro-methyl)pyridine-3-carboxamide] | 5190 nM |
| N#Cc1cc(NC(=O)c2cc(C(F)(F)F)cnc2N2CCCCCC2)ccn1 [Example 197, 2-(azepan-1-yl)-N-(2-cyano-4-pyridyl)-5-(tri-fluoromethyl)pyridine-3-carboxamide] | 244 nM |
| CCS(=O)(=O)c1cc(NC(=O)c2cc(C(F)(F)F)cnc2N2CCCCCC2)ccn1 [Example 198, 2-(azepan-1-yl)-N-(2-ethylsulfonyl-4-pyridyl)-5-(trifluoro-methyl)pyridine-3-carboxamide] | 425 nM |
| O=C(Nc1ccc2ncc(Br)n2c1)c1cc(C(F)(F)F)cnc1N1CCCCCC1 [Example 199, 2-(azepan-1-yl)-N-(3-bromoimidazo[1,2-a]pyridin-6-yl)-5-(trifluoromethyl)-pyridine-3-carboxamide] | 5070 nM |
| O=C(Nc1cncc(C(F)(F)F)c1)c1cc(C(F)(F)F)cnc1N1CCCCCC1 [Example 200, 2-(azepan-1-yl)-5-(trifluoromethyl)-N-[5-(trifluoromethyl)-3-pyridyl]pyridine-3-carboxamide] | 9670 nM |
| Cc1nc(N2CCCCCC2)c(C(=O)Nc2ccnc(S(N)(=O)=O)c2)c(C)c1Cl [Example 201, 2-(azepan-1-yl)-5-chloro-4,6-dimethyl-N-(2-sulfamoylpyridin-4-yl)nicotinamide] | 1.3 nM |
| Cc1nc(N2CCC3(CC2)CC3)c(C(=O)Nc2ccnc(S(N)(=O)=O)c2)c(C)c1Cl [Example 202, 5-chloro-4,6-dimethyl-2-(6-azaspiro[2.5]octan-6-yl)-N-(2-sulfamoylpyridin-4-yl)nicotinamide] | 1.9 nM |
| NC(=O)c1cc(NC(=O)c2cc(C(F)(F)F)cnc2N2CCCCCC2)ccn1 [Example 203, 4-(2-(azepan-1-yl)-5-(trifluoromethyl)nicotinamido)picolinamide] | 139 nM |
| NS(=O)(=O)c1cc(NC(=O)c2cc(Br)cnc2N2CCC(F)(F)CC2)ccn1 [Example 204, 5-bromo-2-(4,4-difluoropiperidin-1-yl)-N-(2-sulfamoylpyridin-4-yl)nicotinamide] | 55 nM |
| NS(=O)(=O)c1cc(NC(=O)c2cc(-c3ccccc3)cnc2N2CCC(F)(F)CC2)ccn1 [Example 205, 2-(4,4-difluoropiperidin-1-yl)-5-phenyl-N-(2-sulfamoylpyridin-4-yl)nicotinamide] | 71 nM |
| NS(=O)(=O)c1cc(NC(=O)c2cc(N3CCCCC3)cnc2N2CCC(F)(F)CC2)ccn1 [Example 206, 2-(4,4-difluoropiperidin-1-yl)-5-(piperidin-1-yl)-N-(2-sulfamoylpyridin-4-yl)nicotinamide] | 363 nM |
| NS(=O)(=O)c1cc(NC(=O)c2cc(-n3cccn3)cnc2N2CCC(F)(F)CC2)ccn1 [Example 207, 2-(4,4-difluoropiperidin-1-yl)-5-(1H-pyrazol-1-yl)-N-(2-sulfamoylpyridin-4-yl)nicotinamide] | 1080 nM |
| O=C(Nc1cc[nH]c(=O)c1)c1cc(C(F)(F)F)cnc1N1CCC2(CC1)CC2 [Example 208, N-(2-oxo-1,2-dihydropyridin-4-yl)-2-(6-azaspiro[2.5]octan-6-yl)-5-(trifluoromethyl)nicotinamide] | 287 nM |
| Cc1nc(N2CCC3(CC2)CC3)c(C(=O)Nc2cc[nH]c(=O)c2)c(C)c1Cl [Example 209, 5-chloro-4,6-dimethyl-N-(2-oxo-1,2-dihydropyridin-4-yl)-2-(6-azaspiro[2.5]octan-6-yl)nicotinamide] | 12 nM |
| O=C(Nc1cc[nH]c(=O)c1)c1cc(C(F)(F)F)cnc1N1CCCC(F)(F)CC1 [Example 210, 2-(4,4-difluoroazepan-1-yl)-N-(2-oxo-1,2-dihydropyridin-4-yl)-5-(trifluoromethyl)-nicotinamide] | 86 nM |
| Cc1nc(N2CCCCC2)c(C(=O)Nc2cc[nH]c(=O)c2)c(C)c1Cl [Example 211, 5-chloro-4,6-dimethyl-N-(2-oxo-1,2-dihydropyridin-4-yl)-2-(piperidin-1-yl)-nicotinamide] | 357 nM |
| O=C(Nc1cc[nH]c(=O)c1)c1cc(C(F)(F)F)cnc1N1CCCCCC1 [Example 212, 2-(azepan-1-yl)-N-(2-oxo-1,2-dihydropyridin-4-yl)-5-(trifluoromethyl)nicotinamide] | 570 nM |
| Cc1nc(N2CCCCCC2)c(C(=O)Nc2cc[nH]c(=O)c2)c(C)c1Cl [Example 213, 2-(azepan-1-yl)-5-chloro-4,6-dimethyl-N-(2-oxo-1,2-dihydropyridin-4-yl)nicotinamide] | 80 nM |
| Cc1nc(N2CCCC(F)(F)CC2)c(C(=O)N(C)c2ccnc(S(N)(=O)=O)c2)c(C)c1Cl [Example 214, 5-chloro-2-(4,4-difluoroazepan-1-yl)-N,4,6-trimethyl-N-(2-sulfamoylpyridin-4-yl)nicotinamide] | 347 nM |
| Cc1nc(C2CCC(C)CC2)c(C(=O)Nc2ccnc(S(N)(=O)=O)c2)c(C)c1Cl (stereo not drawn) [Example 215, 5-chloro-4,6-dimethyl-2-(4-methylcyclohexyl)-N-(2-sulfamoylpyridin-4-yl)nicotinamide] | 6.6 nM |
| NS(=O)(=O)c1cc(NC(=O)c2ncc(Cl)nc2N2CCCC(F)(F)CC2)ccn1 [Example 216, 5-chloro-3-(4,4-difluoroazepan-1-yl)-N-(2-sulfamoylpyridin-4-yl)pyrazine-2-carboxamide] | 80 nM |
| Cc1nc(C2CCCCCC2)c(C(=O)Nc2ccnc(S(N)(=O)=O)c2)c(C)c1Cl [Example 217, 5-chloro-2-cycloheptyl-4,6-dimethyl-N-(2-sulfamoylpyridin-4-yl)nicotinamide] | 3.2 nM |
| Cc1nc(C2CCC(F)(F)CC2)c(C(=O)Nc2ccnc(S(N)(=O)=O)c2)c(C)c1Cl [Example 218, 5-chloro-2-(4,4-difluorocyclohexyl)-4,6-dimethyl-N-(2-sulfamoylpyridin-4-yl)nicotinamide] | 2.4 nM |
